Assay results taken from ChEMBL document CHEMBL1201862, “PubChem BioAssay data set” (2004).
Active and inactive are the calls of the source.

Key:
Protein RecA = molecular target: T1, Protein RecA (Mycobacterium tuberculosis, UniProt P9WHJ3); test: Fluorescence Cell-Free Homogeneous Dose Retest to Identify Inhibitors of RecA-Intein Splicing Activity. [Related pubchem assays (depositor defined):AID2097, AID2223, AID489010, AID492950]; type: functional
T1 sequence (P9WHJ3 whole entry): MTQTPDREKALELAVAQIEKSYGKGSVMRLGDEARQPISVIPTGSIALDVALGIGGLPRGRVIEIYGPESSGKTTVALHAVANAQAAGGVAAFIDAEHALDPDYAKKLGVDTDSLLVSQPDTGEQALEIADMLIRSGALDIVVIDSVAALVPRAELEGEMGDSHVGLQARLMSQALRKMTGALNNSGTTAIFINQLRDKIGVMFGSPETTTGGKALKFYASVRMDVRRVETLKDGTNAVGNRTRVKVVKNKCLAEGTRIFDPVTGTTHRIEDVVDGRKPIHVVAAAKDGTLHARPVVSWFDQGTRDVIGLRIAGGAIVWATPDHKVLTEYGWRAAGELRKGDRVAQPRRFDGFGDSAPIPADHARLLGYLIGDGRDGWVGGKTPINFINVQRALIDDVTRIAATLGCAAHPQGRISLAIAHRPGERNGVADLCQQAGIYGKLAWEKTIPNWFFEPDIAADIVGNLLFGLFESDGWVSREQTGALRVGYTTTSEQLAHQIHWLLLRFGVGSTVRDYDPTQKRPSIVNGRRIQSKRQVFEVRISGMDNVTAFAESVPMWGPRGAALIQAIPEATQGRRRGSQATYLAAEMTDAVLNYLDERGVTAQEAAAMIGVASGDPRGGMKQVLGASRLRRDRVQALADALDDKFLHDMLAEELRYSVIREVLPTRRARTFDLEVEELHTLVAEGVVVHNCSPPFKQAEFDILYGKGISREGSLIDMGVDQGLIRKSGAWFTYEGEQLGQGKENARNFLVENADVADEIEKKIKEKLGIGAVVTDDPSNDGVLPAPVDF

Caspase-3 = molecular target: T2, Caspase-3 (Homo sapiens, UniProt P42574); test: Dose-response confirmation of uHTS inhibitor hits of Sentrin-Specific Protease 8 in a Caspase-3 Fluorescence assay.; type: functional
T2 sequence (P42574 whole entry): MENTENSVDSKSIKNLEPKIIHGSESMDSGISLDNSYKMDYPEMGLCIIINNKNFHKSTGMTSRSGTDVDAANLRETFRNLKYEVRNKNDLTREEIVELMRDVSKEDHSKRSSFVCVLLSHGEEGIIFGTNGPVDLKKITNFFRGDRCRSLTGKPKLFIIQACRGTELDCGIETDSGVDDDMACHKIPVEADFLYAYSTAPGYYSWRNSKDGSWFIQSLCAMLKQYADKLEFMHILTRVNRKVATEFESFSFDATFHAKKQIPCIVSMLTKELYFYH

[1] = molecular target: T3, Sentrin-specific protease 8 (Homo sapiens, UniProt Q96LD8); type: functional
T3 sequence (Q96LD8 whole entry): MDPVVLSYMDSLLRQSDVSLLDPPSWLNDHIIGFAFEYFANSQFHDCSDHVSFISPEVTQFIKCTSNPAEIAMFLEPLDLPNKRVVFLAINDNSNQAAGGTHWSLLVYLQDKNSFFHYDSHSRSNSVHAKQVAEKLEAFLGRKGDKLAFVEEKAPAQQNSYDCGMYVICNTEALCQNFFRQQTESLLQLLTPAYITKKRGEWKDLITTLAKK

[2] = molecular target: T4, Replicative DNA helicase DnaB (Mycobacterium tuberculosis, UniProt P9WMR3); test: DnaB intein splicing inhibitors, dose response, biochemical, cell-free fluorescence (AID 449749); type: functional
T4 sequence (P9WMR3 whole entry): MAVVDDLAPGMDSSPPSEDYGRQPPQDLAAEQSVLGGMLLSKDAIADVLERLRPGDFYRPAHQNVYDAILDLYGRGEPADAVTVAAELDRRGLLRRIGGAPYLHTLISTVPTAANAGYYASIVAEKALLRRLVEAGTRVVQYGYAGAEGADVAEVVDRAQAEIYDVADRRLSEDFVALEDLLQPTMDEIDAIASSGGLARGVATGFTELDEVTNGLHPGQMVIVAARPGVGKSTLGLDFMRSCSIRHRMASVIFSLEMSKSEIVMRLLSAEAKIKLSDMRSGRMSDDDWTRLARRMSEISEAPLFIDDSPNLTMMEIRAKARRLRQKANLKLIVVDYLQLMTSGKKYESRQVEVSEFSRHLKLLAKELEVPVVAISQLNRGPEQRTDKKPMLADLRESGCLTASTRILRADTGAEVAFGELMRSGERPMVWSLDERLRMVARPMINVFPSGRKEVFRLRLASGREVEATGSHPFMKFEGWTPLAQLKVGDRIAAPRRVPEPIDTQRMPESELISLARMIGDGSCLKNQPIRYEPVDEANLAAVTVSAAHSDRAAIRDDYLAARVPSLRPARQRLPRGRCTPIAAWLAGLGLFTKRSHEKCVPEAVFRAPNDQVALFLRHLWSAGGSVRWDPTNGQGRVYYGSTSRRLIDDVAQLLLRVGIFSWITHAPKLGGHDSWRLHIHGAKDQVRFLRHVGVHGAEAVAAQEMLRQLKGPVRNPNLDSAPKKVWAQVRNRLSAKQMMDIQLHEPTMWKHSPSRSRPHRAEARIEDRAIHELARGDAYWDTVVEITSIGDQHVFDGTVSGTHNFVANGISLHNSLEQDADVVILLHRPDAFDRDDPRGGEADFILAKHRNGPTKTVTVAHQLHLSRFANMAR

[3] = molecular target: T3, Sentrin-specific protease 8; type: functional; remark: listed apart in the source
Major prion protein = Major prion protein (Homo sapiens, UniProt P04156); type: functional, cell-based
cells [4] = test: cells
Galanin receptor type 3 = Galanin receptor type 3 (Homo sapiens, UniProt O60755); test: Fluorescence-based cell-based primary high throughput dose response assay to identify antagonists of the Galanin Receptor 3 (GalR3).; type: functional
cells [5] = type: functional, cell-based; details: HEK-CNG
[6] = molecular target: T5, Trace amine-associated receptor 1 (Homo sapiens, UniProt Q96RJ0); test: Counterscreen for agonists of the human trace amine associated receptor 1 (hTAAR1): Fluorescence-based cell-based high throughput dose response assay to identify hTAAR1 agonist that also desensitize TAAR1 receptor response.; type: functional
cells [7] = type: functional, cell-based
[8] = molecular target: T5, Trace amine-associated receptor 1; test: Fluorescence-based cell-based high throughput dose response assay to identify agonists of the human trace amine associated receptor 1 (TAAR1).; type: functional
cells [9] = type: functional, cell-based; remark: listed apart in the source
[10] = molecular target: Potassium voltage-gated channel subfamily KQT member 2 (Rattus norvegicus, UniProt O88943); test: block of rat KCNQ2 potassium channel – cell-based, FluxOR thallium flux, concentration-response, selectivity assay for TASK1 inhibitor project, SAR follow-up (AID 652192); type: functional
[11] = molecular target: Potassium channel subfamily K member 3 (Homo sapiens, UniProt O14649); test: inhibition of human KCNK3 channel flux – CHO cells, FluxOR thallium flux, SAR follow-up (AID 652212); type: functional
[12] = molecular target: Potassium channel subfamily K member 9 (Homo sapiens, UniProt Q9NPC2); test: KCNK9 flux blockade, concentration-response – cell-based, FluxOR thallium flux, selectivity assay for TASK1 inhibitor project, SAR follow-up (AID 652211); type: functional;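 also: potency is for inhibitors of the channel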
[13] = activation of miR-122 Renilla sensor silencing – cell-based, Huh7 psiCHECK-miR122, Renilla luciferase, cherry-picked, dose response (AID 651956); type: functional;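 also: huh7 hepatoma cells stably carrying a psiCHECK-2 miR-122 sensor plasmid; renilla luciferase signal reporting endogenous miR-122 activity after 48 h compound exposure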
[14] = general mammalian cell viability loss – activator set, cherry-pick, cytotoxicity control for miR-122 modulator project, dose response (AID 720690); type: functional, cell-based;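 also: HEK293T human cells scored for general mammalian cytotoxicity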
[15] = A Cell-Based Confirmatory Screen for Compounds that Inhibit VEEV, TC-83 (7).; type: functional
[16] = molecular target: Endoplasmic reticulum aminopeptidase 1 (Homo sapiens, UniProt Q9NZ08); test: inhibition of human ERAP1 enzyme activity – biochemical, cherry-pick, set 2, plate reader, dose response (AID 743314)
[17] = viability of uninfected HEp-2 cells – cell-based, HTS, cytotoxicity control for RSV inhibitor project, dose response (AID 2410); type: functional; details: human respiratory syncytial virus
[18] = Late stage assay provider results from the probe development effort to identify selective inhibitors of heat shock protein 90 (HSP90): Absorbance-based cell proliferation assay in MCF7 cells.; type: functional
[19] = Late stage assay provider results from the probe development effort to identify selective inhibitors of heat shock protein 90 (HSP90): Absorbance-based cell proliferation assay in SKBR3 cells.; type: functional; details: SK-BR-3
[20] = molecular target: T6, High affinity choline transporter 1 (Homo sapiens, UniProt Q9GZV3); test: human choline transporter blockers, potency – cell-based, 5-point CRC, membrane potential dye, dose response (AID 504840); type: functional
T6 sequence (Q9GZV3 whole entry): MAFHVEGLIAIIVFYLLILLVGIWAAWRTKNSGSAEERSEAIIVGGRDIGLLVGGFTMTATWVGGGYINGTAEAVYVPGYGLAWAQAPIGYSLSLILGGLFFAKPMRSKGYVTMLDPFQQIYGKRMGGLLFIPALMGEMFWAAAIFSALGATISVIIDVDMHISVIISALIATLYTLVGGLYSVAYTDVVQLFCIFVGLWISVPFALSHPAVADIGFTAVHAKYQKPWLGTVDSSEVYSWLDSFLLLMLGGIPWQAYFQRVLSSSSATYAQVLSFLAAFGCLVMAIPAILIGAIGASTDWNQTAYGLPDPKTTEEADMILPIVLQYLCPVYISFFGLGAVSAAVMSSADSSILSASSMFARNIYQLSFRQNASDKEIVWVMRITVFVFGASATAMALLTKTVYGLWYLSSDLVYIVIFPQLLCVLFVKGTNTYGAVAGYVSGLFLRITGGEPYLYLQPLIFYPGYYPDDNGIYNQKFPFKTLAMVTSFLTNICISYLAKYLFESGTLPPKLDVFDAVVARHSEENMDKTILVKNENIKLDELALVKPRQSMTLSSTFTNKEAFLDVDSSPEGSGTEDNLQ

Beta-lactamase [21] = molecular target: T7, Beta-lactamase (Pseudomonas aeruginosa, UniProt Q79MP6); test: […] counterscreen for selective VIM-2 inhibitors: dose response biochemical high throughput screening assay to identify inhibitors of IMP-1 metallo-beta-lactamase.
Beta-lactamase [22] = molecular target: Beta-lactamase (Salmonella choleraesuis (strain SC-B67), UniProt Q5J463); test: Epi-absorbance-based counterscreen for selective VIM-2 inhibitors: dose response biochemical high throughput screening assay to identify inhibitors of TEM-1 serine-beta-lactamase.
Estrogen receptor = molecular target: T8, Estrogen receptor (Homo sapiens, UniProt P03372);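 also: potency for inhibiting coactivator peptide recruitment to the receptor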
T8 sequence (P03372 whole entry): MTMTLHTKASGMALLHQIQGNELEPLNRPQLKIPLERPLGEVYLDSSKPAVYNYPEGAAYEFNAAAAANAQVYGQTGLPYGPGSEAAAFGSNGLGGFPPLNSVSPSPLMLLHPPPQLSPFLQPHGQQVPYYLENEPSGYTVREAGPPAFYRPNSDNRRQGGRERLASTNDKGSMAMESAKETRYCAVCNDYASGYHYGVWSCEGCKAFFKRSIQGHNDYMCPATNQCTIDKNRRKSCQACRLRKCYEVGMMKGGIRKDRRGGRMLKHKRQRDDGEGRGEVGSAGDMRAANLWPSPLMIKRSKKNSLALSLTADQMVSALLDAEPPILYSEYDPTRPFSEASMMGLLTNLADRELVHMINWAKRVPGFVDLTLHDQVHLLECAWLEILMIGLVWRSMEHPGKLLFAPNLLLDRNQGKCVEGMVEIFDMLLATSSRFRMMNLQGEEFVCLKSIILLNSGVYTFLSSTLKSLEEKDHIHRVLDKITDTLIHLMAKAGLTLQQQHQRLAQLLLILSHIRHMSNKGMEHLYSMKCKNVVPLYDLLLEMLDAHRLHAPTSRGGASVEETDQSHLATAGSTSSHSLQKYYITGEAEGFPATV

Beta-lactamase [23] = molecular target: T7, Beta-lactamase; test: inhibition of IMP-1 beta-lactamase activity – biochemical, epi-absorbance, selectivity assay for VIM-2 inhibitor project, dose response (AID 1920)
[24] = molecular target: T6, High affinity choline transporter 1; test: human choline transporter blockers, potency – cell-based, 10-point CRC, membrane potential dye, dose response (AID 588401); type: functional;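 also: membrane potential dye fluorescence of choline-evoked depolarization via CHT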

T5 sequence (Q96RJ0 whole entry): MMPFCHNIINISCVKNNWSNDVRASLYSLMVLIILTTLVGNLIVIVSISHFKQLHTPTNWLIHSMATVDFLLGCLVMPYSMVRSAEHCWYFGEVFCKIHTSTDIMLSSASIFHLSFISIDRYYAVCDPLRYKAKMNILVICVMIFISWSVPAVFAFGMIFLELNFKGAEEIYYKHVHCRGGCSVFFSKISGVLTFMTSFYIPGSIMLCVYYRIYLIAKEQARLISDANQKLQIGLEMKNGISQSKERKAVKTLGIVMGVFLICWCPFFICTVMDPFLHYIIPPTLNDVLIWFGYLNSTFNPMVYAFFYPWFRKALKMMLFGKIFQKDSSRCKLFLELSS
T7 sequence (Q79MP6 whole entry): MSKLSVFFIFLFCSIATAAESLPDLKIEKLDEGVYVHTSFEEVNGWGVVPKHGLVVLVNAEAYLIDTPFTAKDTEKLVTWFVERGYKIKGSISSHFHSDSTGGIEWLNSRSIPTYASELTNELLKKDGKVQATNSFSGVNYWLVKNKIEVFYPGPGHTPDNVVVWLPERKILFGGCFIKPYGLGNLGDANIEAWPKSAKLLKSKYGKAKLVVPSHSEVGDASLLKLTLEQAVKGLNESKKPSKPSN
Chain of Potassium channel subfamily K member 3 (O14649 whole entry): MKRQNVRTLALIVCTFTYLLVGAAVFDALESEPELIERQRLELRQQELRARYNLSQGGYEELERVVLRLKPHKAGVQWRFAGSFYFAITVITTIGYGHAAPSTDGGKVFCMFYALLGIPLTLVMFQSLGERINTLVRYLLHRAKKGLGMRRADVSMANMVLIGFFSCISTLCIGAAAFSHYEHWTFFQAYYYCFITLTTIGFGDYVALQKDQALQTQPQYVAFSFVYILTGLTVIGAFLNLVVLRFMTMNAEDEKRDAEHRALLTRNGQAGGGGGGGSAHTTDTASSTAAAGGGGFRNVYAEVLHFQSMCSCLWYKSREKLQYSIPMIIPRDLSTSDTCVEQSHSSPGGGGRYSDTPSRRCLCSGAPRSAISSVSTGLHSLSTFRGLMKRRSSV
Chain of Potassium voltage-gated channel subfamily KQT member 2 (O88943 whole entry): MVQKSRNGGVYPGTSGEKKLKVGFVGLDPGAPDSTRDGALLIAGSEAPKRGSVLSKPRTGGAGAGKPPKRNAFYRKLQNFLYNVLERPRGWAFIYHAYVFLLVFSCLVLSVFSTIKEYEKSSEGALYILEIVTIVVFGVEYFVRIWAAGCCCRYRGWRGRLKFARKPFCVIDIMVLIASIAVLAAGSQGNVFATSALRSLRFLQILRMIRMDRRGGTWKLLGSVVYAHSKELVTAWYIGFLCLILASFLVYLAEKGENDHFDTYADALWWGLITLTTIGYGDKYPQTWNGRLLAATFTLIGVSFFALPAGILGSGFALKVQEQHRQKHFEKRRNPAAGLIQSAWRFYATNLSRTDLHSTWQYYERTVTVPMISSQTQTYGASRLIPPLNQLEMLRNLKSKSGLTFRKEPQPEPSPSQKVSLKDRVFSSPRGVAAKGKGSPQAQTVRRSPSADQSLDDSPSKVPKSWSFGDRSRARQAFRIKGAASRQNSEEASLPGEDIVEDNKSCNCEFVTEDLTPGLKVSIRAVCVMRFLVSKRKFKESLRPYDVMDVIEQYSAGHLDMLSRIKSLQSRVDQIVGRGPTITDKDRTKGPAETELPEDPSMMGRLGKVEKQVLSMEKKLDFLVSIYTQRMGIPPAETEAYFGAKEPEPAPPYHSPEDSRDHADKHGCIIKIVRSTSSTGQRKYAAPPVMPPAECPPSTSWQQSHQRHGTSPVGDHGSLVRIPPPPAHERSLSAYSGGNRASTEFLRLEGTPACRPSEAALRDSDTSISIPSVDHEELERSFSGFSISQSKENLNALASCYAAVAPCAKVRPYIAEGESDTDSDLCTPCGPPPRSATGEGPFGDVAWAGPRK
Chain of Potassium channel subfamily K member 9 (Q9NPC2 whole entry): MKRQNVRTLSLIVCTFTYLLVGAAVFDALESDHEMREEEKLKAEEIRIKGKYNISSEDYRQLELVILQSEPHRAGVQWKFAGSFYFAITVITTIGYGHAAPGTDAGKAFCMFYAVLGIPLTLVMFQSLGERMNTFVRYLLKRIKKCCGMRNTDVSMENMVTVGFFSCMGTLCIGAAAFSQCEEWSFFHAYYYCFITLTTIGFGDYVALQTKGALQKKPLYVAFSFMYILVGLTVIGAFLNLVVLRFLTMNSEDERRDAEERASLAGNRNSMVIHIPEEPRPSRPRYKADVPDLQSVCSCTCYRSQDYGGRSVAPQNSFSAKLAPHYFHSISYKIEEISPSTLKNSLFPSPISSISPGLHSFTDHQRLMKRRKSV
Chain of Galanin receptor type 3 (O60755 whole entry): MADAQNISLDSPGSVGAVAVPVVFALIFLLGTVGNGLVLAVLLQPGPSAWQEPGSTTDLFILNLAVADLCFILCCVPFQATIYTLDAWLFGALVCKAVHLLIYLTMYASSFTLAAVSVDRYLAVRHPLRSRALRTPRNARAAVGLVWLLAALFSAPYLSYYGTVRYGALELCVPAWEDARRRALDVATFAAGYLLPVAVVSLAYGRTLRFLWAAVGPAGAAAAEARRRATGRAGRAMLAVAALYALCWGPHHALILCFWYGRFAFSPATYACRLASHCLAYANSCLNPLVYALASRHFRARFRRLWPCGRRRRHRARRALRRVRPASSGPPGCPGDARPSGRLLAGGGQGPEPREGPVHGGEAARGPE
Chain of Beta-lactamase (Salmonella choleraesuis (strain SC-B67), UniProt Q5J463) (Q5J463 whole entry): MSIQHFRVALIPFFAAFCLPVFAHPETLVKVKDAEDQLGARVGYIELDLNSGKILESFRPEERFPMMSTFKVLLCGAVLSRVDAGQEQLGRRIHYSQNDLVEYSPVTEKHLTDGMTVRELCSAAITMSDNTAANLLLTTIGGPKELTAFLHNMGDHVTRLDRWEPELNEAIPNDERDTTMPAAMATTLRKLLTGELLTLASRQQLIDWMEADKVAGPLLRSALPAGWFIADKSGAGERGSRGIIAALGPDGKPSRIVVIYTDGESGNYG
Chain of Endoplasmic reticulum aminopeptidase 1 (Q9NZ08 whole entry): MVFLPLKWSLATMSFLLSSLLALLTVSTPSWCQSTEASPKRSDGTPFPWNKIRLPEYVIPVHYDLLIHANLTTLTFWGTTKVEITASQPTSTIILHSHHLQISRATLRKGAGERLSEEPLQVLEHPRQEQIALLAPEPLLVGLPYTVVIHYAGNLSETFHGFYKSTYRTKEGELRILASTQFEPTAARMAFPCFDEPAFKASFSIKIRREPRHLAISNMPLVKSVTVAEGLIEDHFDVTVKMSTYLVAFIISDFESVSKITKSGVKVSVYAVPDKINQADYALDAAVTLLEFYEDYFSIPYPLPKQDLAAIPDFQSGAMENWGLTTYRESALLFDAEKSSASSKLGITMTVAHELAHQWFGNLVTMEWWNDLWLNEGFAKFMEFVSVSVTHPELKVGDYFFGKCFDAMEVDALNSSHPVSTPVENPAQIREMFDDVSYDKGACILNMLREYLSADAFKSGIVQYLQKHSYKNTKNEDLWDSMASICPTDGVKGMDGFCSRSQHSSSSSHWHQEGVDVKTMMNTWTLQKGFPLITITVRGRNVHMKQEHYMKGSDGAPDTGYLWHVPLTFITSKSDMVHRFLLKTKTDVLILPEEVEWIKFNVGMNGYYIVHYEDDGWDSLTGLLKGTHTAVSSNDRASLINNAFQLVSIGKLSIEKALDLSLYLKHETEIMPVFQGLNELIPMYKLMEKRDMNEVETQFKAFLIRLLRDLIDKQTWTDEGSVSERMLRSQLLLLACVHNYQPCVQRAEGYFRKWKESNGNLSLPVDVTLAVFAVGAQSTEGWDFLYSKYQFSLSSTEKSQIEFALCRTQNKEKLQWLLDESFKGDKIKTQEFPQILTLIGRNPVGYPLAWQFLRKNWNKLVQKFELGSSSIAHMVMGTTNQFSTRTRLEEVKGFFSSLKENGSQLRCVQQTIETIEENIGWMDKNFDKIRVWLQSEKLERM

For COc1ccc(-c2csc(CCN3N=C(C)CC3=O)n2)cc1, the EC50 (Protein RecA) was 1.54 µM (active), the IC50 (Caspase-3) was 100 µM (inactive) and the IC50 [1] was 14.6 µM (active). For the same compound, the AC50 [2] was 3.27 µM (active) and the IC50 [3] was 12.1 µM (active).

For COc1ccc(/C=C\C(=O)NCc2ccc3c(c2)cc(C)n3C)cc1OC, the IC50 (Major prion protein) was 40.3 µM (inactive) and the IC50 (cells [4]) was > 138 µM (inactive).

For Cc1cc(Br)cn2c(Cc3ccccc3C(F)(F)F)c(-c3ccco3)nc12, the IC50 (Galanin receptor type 3) was 14.5 µM (inactive) and the EC50 (cells [5]) was > 29.9 µM (inactive).

With CC(C)[C@H](NC(=O)C1CCCC1)C(=O)N1CCC[C@H]1C(=O)NCCc1ccccc1Cl the IC50 [6] was 3.8 µM (active), the EC50 (cells [7]) was > 29.9 µM (inactive) and the EC50 [8] was 0.897 µM (active). The IC50 (cells [9]) was > 29.9 µM (inactive).

In the case of COc1cnccc1C(=O)Nc1cccc(NC(=O)c2cccc(C)c2)c1, the IC50 [10] is reported as 7.58 µM (active), the IC50 [11] is reported as 0.18 µM (active) and the IC50 [12] is reported as 2.43 µM (active).

With C[C@@H]1CCCCO[C@H](CN(C)CC2CCCCC2)[C@H](C)CN([C@@H](C)CO)C(=O)c2cc(NC(=O)Nc3ccc(C(F)(F)F)cc3)ccc2O1 the AC50 [13] was 2.85 µM (active) and the AC50 [14] was 4.83 µM (active).

For CN1CCN(C)/C(=N/c2ccc([N+](=O)[O-])cc2C(=O)Nc2ccccc2F)C1, the IC50 [15] was 0.15 µM (active).

For COc1ccc(-c2cc3ccc(O)cc3oc2=O)cc1, the AC50 [16] was 3.06 µM (active) and the CC50 [17] was 49.4 µM (active).

In the case of Cc1c(N/C=C2/C=C(Br)C(=O)OC2=O)c(=O)n(-c2ccccc2)n1C, the IC50 [18] is reported as 3 µM (active) and the IC50 [19] is reported as 16 µM (inactive).

With Cn1ccnc1SCC(=O)Nc1ccc2nc(SCC(=O)NC3CC3)sc2c1 the IC50 [20] was 4.29 µM (active), the IC50 (Beta-lactamase [21]) was > 59.6 µM (inactive) and the IC50 (Beta-lactamase [22]) was > 59.6 µM (inactive). The IC50 (Estrogen receptor) was 25.7 µM (active), the IC50 (Beta-lactamase [23]) was > 59.6 µM (inactive) and the IC50 [24] was 0.843 µM (active).
